Laboratory results reported in PMC3881575, “Biochemical and Bioinformatic Characterization of Type II Metacaspase Protein (TaeMCAII) from Wheat” (Plant Molecular Biology Reporter, 2012).

Assays:
Test in all cases: colorimetric pNA release, […] nm
Type in all cases: biochemical
TaeMCAII [1] = biological target: T1, TaeMCAII (Triticum aestivum, UniProt D1MBU0, DEL149-214); conditions: 50 μM Ac-VRPR-pNa, pH 7.0, 30 mM CaCl2, 10 mM DTT; 1 h preincubation at 30°C; irreversible, covalent
T1 construct: gene MCAII; full-length ORF (405 residues, 44 kDa) in pET-28a(+), N-terminal His6 tag, E. coli BL21(DE3)pLysS, Ni-NTA; autoprocessed after Lys148 and Arg214 (66-residue linker removed) into 16 kDa N-terminal and 20 kDa C-terminal subunits
T1 sequence (D1MBU0 1-148): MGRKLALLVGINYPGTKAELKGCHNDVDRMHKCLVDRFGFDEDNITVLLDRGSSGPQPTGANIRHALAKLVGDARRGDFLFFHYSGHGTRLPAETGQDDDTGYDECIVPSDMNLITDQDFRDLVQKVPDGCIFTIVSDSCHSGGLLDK
T1 sequence (D1MBU0 215-405): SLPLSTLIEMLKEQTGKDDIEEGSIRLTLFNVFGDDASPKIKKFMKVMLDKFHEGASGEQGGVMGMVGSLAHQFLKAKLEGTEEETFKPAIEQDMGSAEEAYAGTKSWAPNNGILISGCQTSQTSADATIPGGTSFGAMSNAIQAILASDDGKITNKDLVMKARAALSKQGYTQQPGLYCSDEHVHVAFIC

TaeMCAII [2] = biological target: T1, TaeMCAII; conditions: 50 μM Ac-VRPR-pNa, pH 7.0, 30 mM CaCl2, 10 mM DTT; 1 h preincubation at 30°C; competitive
TaeMCAII [3] = biological target: T1, TaeMCAII; conditions: 50 μM Ac-VRPR-pNa, pH 7.0, 30 mM CaCl2, 10 mM DTT; 1 h preincubation at 30°C; irreversible, covalent; remark: listed apart in the source

Compound: CC(C)C[C@H](NC(=O)[C@@H]1O[C@H]1C(=O)O)C(=O)NCCCCN=C(N)N [E-64, 1-trans-epoxysuccinylleucylamide-(4-guanido)-butane]
- % activity retained at 100 μM (TaeMCAII [1]): 89%

Compound: CC(=O)N[C@@H](CC(C)C)C(=O)N[C@@H](CC(C)C)C(=O)N[C@H](C=O)CCCNC(=N)N [leupeptin]
- % decrease of activity at 10 μM (TaeMCAII [2]): 88%

Compound: Cc1ccc(S(=O)(=O)N[C@@H](CCCCN)C(=O)CCl)cc1 [TLCK, N^α-tosyl-L-lysine-chloromethyl ketone]
- % decrease of activity at 100 μM (TaeMCAII [3]): 43%
